Assay results taken from patent US12234230B2, “Substituted benzyl-triazole compounds for Cbl-b inhibition, and further uses thereof” (Nurix Therapeutics, Inc., priority 2019, dated 2025).

Key:
[1] = test system: primary human total T-cells; assay: Primary human total T-cell activation (IL-2 secretion, CD25 surface staining), Biological Example 2; conditions: fold change over baseline; for CD25 staining CD3/CD28 0.3 μM / IL-2 secretion CD3/CD28 0.3 μM: 0.3 μM inhibitor; for CD25 staining CD3/CD28 0.3 μM / IL-2 secretion CD3/CD28 0.3 μM / CD25 staining CD3/CD28 1 μM / IL-2 secretion CD3/CD28 1 μM: anti-CD3 and anti-CD28 co-stimulation; for CD25 staining CD3/CD28 1 μM / IL-2 secretion CD3/CD28 1 μM / CD25 staining CD3 1 μM / IL-2 secretion CD3 1 μM: 1 μM inhibitor; for CD25 staining CD3 1 μM / IL-2 secretion CD3 1 μM / CD25 staining CD3 3 μM / IL-2 secretion CD3 3 μM: anti-CD3 stimulation alone; for CD25 staining CD3 3 μM / IL-2 secretion CD3 3 μM: 3 μM inhibitor
Experimental: Peripheral blood mononuclear cells (PBMC) were obtained either: 1) by using Ficoll-Paque™ (GE Healthcare) for separation of peripheral blood hematopoietic cells from buffy coats of healthy human donors; or 2) directly from LeukoPak donations. […] The cells were rested overnight at 37° C. 5% CO2. The Cbl-inhibitor was added to 1×10^5 cells per well and the plate was incubated for one hour at 37° C. in 5% CO2 at the concentrations indicated (Table 3) with a final DMSO concentration of <0.1%. For samples stimulated with anti-CD3 antibody and anti-CD28 antibody (anti-CD3/anti-CD28), the Cbl-b inhibitor concentrations tested were 1 μM, and 0.3 μM. For samples stimulated with anti-CD3 antibody alone (anti-CD3), the Cbl-b inhibitor concentrations tested were 3 μM, and 1 μM. […] To prepare plates with plate bound anti-CD3 antibody (OKT3), 96-well round bottom tissue culture plates were coated with 100 μL of anti-CD3 antibody (OKT3) at 10 μg/mL for 4 hours at 37° C. 5% CO2 in phosphate buffered saline (PBS). […] Cells were stimulated for 48 hours prior to harvesting the cell free supernatant and staining the cell population for surface marker assessment by flow cytometry. Supernatants were analyzed for cytokine secretion, including IL-2 by ELISA (R&D Systems, Peprotech or Life Technologies) or Luminex multiplex kits (Procarta Life Technologies) following the manufacturer's protocol. Cells were stained with anti-CD25 antibody (BD Biosciences) to assess levels of surface marker of activation.
Readouts were reported as fold change over baseline. Baseline for this study was the measurement obtained from total human T-cells stimulated with anti-CD3 antibody and with soluble anti-CD28 antibody, wherein the cells were not incubated with a Cbl-b inhibitor (Table 3).

[2] = test system: primary human total T-cells; assay: Primary human total T-cell activation (IL-2 secretion, CD25 surface staining), Biological Example 9; conditions: fold change over baseline, Table 9-1; for IL-2 secretion CD3/CD28 0.3 μM: 0.3 μM inhibitor; for IL-2 secretion CD3/CD28 0.3 μM / IL-2 secretion CD3/CD28 1 μM: anti-CD3 and anti-CD28 co-stimulation; for IL-2 secretion CD3/CD28 1 μM / IL-2 secretion CD3 1 μM: 1 μM inhibitor; for IL-2 secretion CD3 1 μM / IL-2 secretion CD3 3 μM: anti-CD3 stimulation alone; for IL-2 secretion CD3 3 μM: 3 μM inhibitor
Experimental: Peripheral blood mononuclear cells (PBMC) were obtained either: 1) by using Ficoll-Paque™ (GE Healthcare) for separation of peripheral blood hematopoietic cells from buffy coats of healthy human donors; or 2) directly from LeukoPak donations. […] The cells were rested overnight at 37° C. 5% CO2. The Cbl-inhibitor was added to 1×10^5 cells per well and the plate was incubated for one hour at 37° C. in 5% CO2 at the concentrations indicated (Table 9-1) with a final DMSO concentration of <0.1%. For samples stimulated with anti-CD3 antibody and anti-CD28 antibody (anti-CD3/anti-CD28), the Cbl-b inhibitor concentrations tested were 1 μM, and 0.3 μM. For samples stimulated with anti-CD3 antibody alone (anti-CD3), the Cbl-b inhibitor concentrations tested were 3 μM, and 1 μM. […] To prepare plates with plate bound anti-CD3 antibody (OKT3), 96-well round bottom tissue culture plates were coated with 100 μL of anti-CD3 antibody (OKT3) at 10 μg/mL for 4 hours at 37° C. 5% CO2 in phosphate buffered saline (PBS). […] Cells were stimulated for 48 hours prior to harvesting the cell free supernatant and staining the cell population for surface marker assessment by flow cytometry. Supernatants were analyzed for cytokine secretion, including IL-2 by ELISA (R&D Systems, Peprotech or Life Technologies) or Luminex multiplex kits (Procarta Life Technologies) following the manufacturer's protocol. Cells were stained with anti-CD25 antibody (BD Biosciences) to assess levels of surface marker of activation.
Readouts were reported as fold change over baseline. Baseline for this study was the measurement obtained from total human T-cells stimulated with anti-CD3 antibody and with soluble anti-CD28 antibody, wherein the cells were not incubated with a Cbl-b inhibitor (Table 9-1). […] For T-cells stimulated with anti-CD3 alone, changes greater than 0.1-fold over baseline for IL-2 secretion and greater than 0.6-fold over baseline for CD25 surface staining were considered significant and a positive response.

[3] = biological target: T1, Cbl-b (Homo sapiens (Human), UniProt Q13191); assay: Cbl-b displacement assay (Cbl-b inhibition assay), Biological Example 11; type: binding; conditions: 0.125 nM Cbl-b final concentration (Low); Table 11-1
Experimental: (§1) Candidate compounds were evaluated for their ability to bind and inhibit Cbl-b, an E3 ubiquitin-protein ligase, as evidenced by their ability to displace a fluorophore-labeled probe bound to Cbl-b.
(§2) The ability of candidate compounds to displace a known inhibitor and thereby inhibit Cbl-b activity was measured by monitoring the interaction of Cbl-b with a fluorophore-labeled probe in the presence of the candidate compound.
(§3) Fluorescently-labeled inhibitor probe was synthesized and tagged with BODIPY FL. […] Following the one hour incubation, the plates were read for TR-FRET signal at 520/620 nm using an Envision plate reader (Perkin Elmer).
(§4) The resulting data for the Cbl-b activity assays were analyzed using standard methods to determine the IC50 values for the tested compounds.

[4] = test system: primary human total T-cells; assay: Primary human total T-cell activation (IL-2 secretion, CD25 surface staining), Biological Example 12; conditions: fold change over baseline, Table 12-1; for IL-2 secretion CD3/CD28 0.3 μM: 0.3 μM inhibitor; for IL-2 secretion CD3/CD28 0.3 μM / IL-2 secretion CD3/CD28 1 μM: anti-CD3 and anti-CD28 co-stimulation; for IL-2 secretion CD3/CD28 1 μM / IL-2 secretion CD3 1 μM: 1 μM inhibitor; for IL-2 secretion CD3 1 μM / IL-2 secretion CD3 3 μM: anti-CD3 stimulation alone; for IL-2 secretion CD3 3 μM: 3 μM inhibitor
Experimental: Peripheral blood mononuclear cells (PBMC) were obtained either: 1) by using Ficoll-Paque™ (GE Healthcare) for separation of peripheral blood hematopoietic cells from buffy coats of healthy human donors; or 2) directly from LeukoPak donations. […] The cells were rested overnight at 37° C. 5% CO2. The Cbl-inhibitor was added to 1×10^5 cells per well and the plate was incubated for one hour at 37° C. in 5% CO2 at the concentrations indicated (Table 12-1) with a final DMSO concentration of <0.1%. For samples stimulated with anti-CD3 antibody and anti-CD28 antibody (anti-CD3/anti-CD28), the Cbl-b inhibitor concentrations tested were 1 μM, and 0.3 μM. For samples stimulated with anti-CD3 antibody alone (anti-CD3), the Cbl-b inhibitor concentrations tested were 3 μM, and 1 μM. […] To prepare plates with plate bound anti-CD3 antibody (OKT3), 96-well round bottom tissue culture plates were coated with 100 μL of anti-CD3 antibody (OKT3) at 10 μg/mL for 4 hours at 37° C. 5% CO2 in phosphate buffered saline (PBS). […] Cells were stimulated for 48 hours prior to harvesting the cell free supernatant and staining the cell population for surface marker assessment by flow cytometry. Supernatants were analyzed for cytokine secretion, including IL-2 by ELISA (R&D Systems, Peprotech or Life Technologies) or Luminex multiplex kits (Procarta Life Technologies) following the manufacturer's protocol. Cells were stained with anti-CD25 antibody (BD Biosciences) to assess levels of surface marker of activation.
Readouts were reported as fold change over baseline. Baseline for this study was the measurement obtained from total human T-cells stimulated with anti-CD3 antibody and with soluble anti-CD28 antibody, wherein the cells were not incubated with a Cbl-b inhibitor (Table 12-1). […] For T-cells stimulated with anti-CD3 alone, changes greater than 0.1-fold over baseline for IL-2 secretion and greater than 0.6-fold over baseline for CD25 surface staining were considered significant and a positive response.

[5] = biological target: T1, Cbl-b; assay: Cbl-b displacement assay (Cbl-b inhibition assay), Biological Example 8; type: binding; conditions: 0.125 nM Cbl-b final concentration (Low); Table 8-1
Experimental: as §1, §2, §3, §4

[6] = biological target: T1, Cbl-b; assay: Cbl-b displacement assay (Cbl-b inhibition assay), Biological Example 1; type: binding
Experimental: as §2
Following the one hour incubation, the plates were read for TR-FRET signal at 520/620 nm using an Envision plate reader (Perkin Elmer).

[7] = test system: colon carcinoma CT26 tumor cells; conditions: 30 mg/kg PO daily D8 to D28; CT26 tumors on both flanks; compared to vehicle control
Experimental: Mice were implanted with 100,000 colon carcinoma CT26 tumor cells on both flanks of the mice. […] Treatments were continued daily until Day Twenty Eight (D28). […] A group of mice received an oral vehicle (0.5% Methylcellulose, 0.2% Polysorbate 80). Tumor growth inhibition (TGI) was calculated as follows: (1−(median tumor volume of drug treated group/median tumor volume of vehicle treated group))×100.

[8] = test system: TC-1 cells; assay: TC-1 syngeneic mouse model, vaccine combination, Biological Example 15; type: in vivo; conditions: Compound 23 orally D13 to D47 in combination with HPV16 vaccine s.c. at D13 and D20; TC-1 tumor bearing mice
Experimental: Mice were implanted with 50,000 TC-1 cells/mouse subcutaneously into the right flank at Day Zero (DO). Thirteen days later (D13), when tumors measured approximately 50-100 mm^3, mice from appropriate groups (15 mice per group) were injected with HPV16 vaccine (s.c., total 2 doses, at D13 and Day 20 (D20)). […] Mice were euthanized when tumor exceeded 1500-2000 mm^3, according to IACUC guidelines. Survival was compared using GraphPad Prism using log-rank (Mantel-Cox) test. **=p<0.001 of treatment vs. Vehicle+Vaccine control group at Day 61.
TC-1 cells were derived by stable transfection of mouse lung epithelial cells with human papillomavirus strain 16 (HPV16) early proteins 6 and 7 (E6 and E7) and activated h-ras oncogene. Cells were obtained from Dr. T-C Wu (Johns Hopkins University). (Lin K Y, Guarnieri F G, Staveley-O'Carroll K F, Levitsky H I, August J T, Pardoll D M, et al. Treatment of established tumors with a novel vaccine that enhances major histocompatibility class II presentation of tumor antigen. Cancer Res 1996; 56:21-6).
The HPV16 vaccine was prepared as follows: The CTL epitope from HPV16 E749-57 (9 amino acid (aa) peptide, […], 100 μg/mouse, SEQ ID NO: 2) was mixed with synthetic T helper epitope PADRE (13 aa peptide, aK-Cha-[…]a, SEQ ID NO: 3, where “a” is D-alanine and Cha is L-cyclohexylalanine, 20 μg/mouse) and with QuilA adjuvant (20 ug/mouse).

[9] = 0.125 nM Cbl-b final concentration (Low), read-out: Cbl-b activity IC50 (Low)

T1 sequence (Q13191 36-427): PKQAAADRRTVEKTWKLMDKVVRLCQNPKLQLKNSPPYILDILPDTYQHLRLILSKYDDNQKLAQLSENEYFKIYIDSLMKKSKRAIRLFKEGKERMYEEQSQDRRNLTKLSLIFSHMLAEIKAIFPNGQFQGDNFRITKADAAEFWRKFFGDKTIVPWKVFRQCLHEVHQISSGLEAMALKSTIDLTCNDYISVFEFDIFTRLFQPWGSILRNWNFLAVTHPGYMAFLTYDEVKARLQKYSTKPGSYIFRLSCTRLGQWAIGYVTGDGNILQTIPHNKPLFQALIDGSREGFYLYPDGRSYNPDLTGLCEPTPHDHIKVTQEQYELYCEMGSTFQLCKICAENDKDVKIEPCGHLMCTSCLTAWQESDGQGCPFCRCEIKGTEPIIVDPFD

Structure (SMILES): C[C@H]1CCCN(Cc2cc3c(c(C(F)(F)F)c2)CN(c2cccc(C4(c5nncn5C)CC5(CC5)C4)c2)C3=O)C1 [Compound 42, 6-[[(3S)-3-methyl-1-piperidyl]methyl]-2-[3-[5-(4-methyl-1,2,4-triazol-3-yl)spiro[2.3]hexan-5-yl]phenyl]-4-(trifluoromethyl)isoindolin-1-one]
- CD25 staining CD3/CD28 0.3 μM [1]: B (B indicates 1.24-1.39 fold)
- IL-2 secretion CD3/CD28 0.3 μM [1]: B (B indicates 20-35 fold)
- CD25 staining CD3/CD28 1 μM [1]: B (B indicates 1.24-1.39 fold)
- IL-2 secretion CD3/CD28 1 μM [1]: A (A indicates >35 fold)
- CD25 staining CD3 1 μM [1]: A (A indicates >2.5 fold)
- IL-2 secretion CD3 1 μM [1]: A (A indicates >1.1 fold)
- CD25 staining CD3 3 μM [1]: A (A indicates >2.5 fold)
- IL-2 secretion CD3 3 μM [1]: A (A indicates >1.1 fold)
- IL-2 secretion CD3/CD28 0.3 μM [2]: A (A indicates >15 fold)
- IL-2 secretion CD3/CD28 1 μM [2]: A (A indicates >15 fold)
- IL-2 secretion CD3 1 μM [2]: A (A indicates >0.66 fold)
- IL-2 secretion CD3 3 μM [2]: A (A indicates >0.66 fold)
- IC50 [3]: < 1 nM
- IL-2 secretion CD3/CD28 0.3 μM [4]: A (A indicates >15 fold)
- IL-2 secretion CD3/CD28 1 μM [4]: A (A indicates >15 fold)
- IL-2 secretion CD3 1 μM [4]: A (A indicates >0.66 fold)
- IL-2 secretion CD3 3 μM [4]: A (A indicates >0.66 fold)
- IC50 [5]: < 1 nM
- IC50 [6, 9]: < 5 nM

Structure (SMILES): C[C@H]1CCCN(Cc2cc3c(c(C(F)(F)F)c2)CN(c2cccc([C@]4(c5nncn5C)C[C@@H](C)C4)c2)C3=O)C1 [Compound 23, 2-(3-((1s,3R)-3-methyl-1-(4-methyl-4H-1,2,4-triazol-3-yl)cyclobutyl)phenyl)-6-(((S)-3-methylpiperidin-1-yl)methyl)-4-(trifluoromethyl)isoindolin-1-one]
- CD25 staining CD3/CD28 0.3 μM [1]: B (B indicates 1.24-1.39 fold)
- IL-2 secretion CD3/CD28 0.3 μM [1]: C (C indicates <20 fold)
- CD25 staining CD3/CD28 1 μM [1]: B (B indicates 1.24-1.39 fold)
- IL-2 secretion CD3/CD28 1 μM [1]: C (C indicates <20 fold)
- IL-2 secretion CD3/CD28 0.3 μM [2]: A (A indicates >15 fold)
- IL-2 secretion CD3/CD28 1 μM [2]: A (A indicates >15 fold)
- IC50 [3]: < 1 nM
- IL-2 secretion CD3/CD28 0.3 μM [4]: A (A indicates >15 fold)
- IL-2 secretion CD3/CD28 1 μM [4]: A (A indicates >15 fold)
- Tumor growth inhibition (TGI) [7]: 68%
- IC50 [5]: < 1 nM
- IC50 [6, 9]: < 5 nM
- survival [8]: prolonged survival
- tumor progression (tumor volume) [8]: significant slowdown of tumor progression

Structure (SMILES): C[C@H]1CCCN(Cc2cc3c(c(C(F)(F)F)c2)CN(c2cccc([C@H](c4nncn4C)C4CCC4)c2)C3=O)C1 [Compound 3, 2-(3-((R)-cyclobutyl(4-methyl-4H-1,2,4-triazol-3-yl)methyl)phenyl)-6-(((S)-3-methylpiperidin-1-yl)methyl)-4-(trifluoromethyl)isoindolin-1-one]
- IL-2 secretion CD3/CD28 0.3 μM [1]: A (A indicates >35 fold)
- IL-2 secretion CD3/CD28 1 μM [1]: A (A indicates >35 fold)
- CD25 staining CD3 1 μM [1]: A (A indicates >2.5 fold)
- IL-2 secretion CD3 1 μM [1]: A (A indicates >1.1 fold)
- CD25 staining CD3 3 μM [1]: A (A indicates >2.5 fold)
- IL-2 secretion CD3 3 μM [1]: A (A indicates >1.1 fold)
- IL-2 secretion CD3/CD28 0.3 μM [2]: A (A indicates >15 fold)
- IL-2 secretion CD3/CD28 1 μM [2]: A (A indicates >15 fold)
- IL-2 secretion CD3 1 μM [2]: A (A indicates >0.66 fold)
- IL-2 secretion CD3 3 μM [2]: A (A indicates >0.66 fold)
- IC50 [3]: < 1 nM
- IL-2 secretion CD3/CD28 0.3 μM [4]: A (A indicates >15 fold)
- IL-2 secretion CD3/CD28 1 μM [4]: A (A indicates >15 fold)
- IL-2 secretion CD3 1 μM [4]: A (A indicates >0.66 fold)
- IL-2 secretion CD3 3 μM [4]: A (A indicates >0.66 fold)
- IC50 [5]: < 1 nM
- IC50 [6, 9]: < 5 nM
- IC50 ([6]; read-out: IC50 values in the Cbl-b inhibition assay of Biological Example 1): ≤ 5 nM

Structure (SMILES): C[C@H]1CCCN(Cc2cc3c(c(C(F)(F)F)c2)CN(c2cccc([C@]4(c5nncn5C)C[C@@H](C#N)C4)c2)C3=O)C1 [Compound 38, (1R,3s)-3-(4-methyl-4H-1,2,4-triazol-3-yl)-3-(3-(6-(((S)-3-methylpiperidin-1-yl)methyl)-1-oxo-4-(trifluoromethyl)isoindolin-2-yl)phenyl)cyclobutane-1-carbonitrile]
- IL-2 secretion CD3/CD28 0.3 μM [1]: B (B indicates 20-35 fold)
- IL-2 secretion CD3/CD28 1 μM [1]: B (B indicates 20-35 fold)
- CD25 staining CD3 1 μM [1]: A (A indicates >2.5 fold)
- IL-2 secretion CD3 1 μM [1]: A (A indicates >1.1 fold)
- CD25 staining CD3 3 μM [1]: A (A indicates >2.5 fold)
- IL-2 secretion CD3 3 μM [1]: B (B indicates 0.70-1.1 fold)
- IL-2 secretion CD3/CD28 0.3 μM [2]: A (A indicates >15 fold)
- IL-2 secretion CD3/CD28 1 μM [2]: A (A indicates >15 fold)
- IL-2 secretion CD3 1 μM [2]: A (A indicates >0.66 fold)
- IL-2 secretion CD3 3 μM [2]: A (A indicates >0.66 fold)
- IC50 [3]: 1 to 5 nM
- IL-2 secretion CD3/CD28 0.3 μM [4]: A (A indicates >15 fold)
- IL-2 secretion CD3/CD28 1 μM [4]: A (A indicates >15 fold)
- IL-2 secretion CD3 1 μM [4]: A (A indicates >0.66 fold)
- IL-2 secretion CD3 3 μM [4]: A (A indicates >0.66 fold)
- IC50 [5]: 1 to 5 nM
- IC50 [6, 9]: < 5 nM
